± gives the expanded uncertainty stated by the source.
Settings: Liquid, Closed cell (Static) method

F/C=C\C(F)(F)F [(Z)-1,3,3,3-tetrafluoro-1-propene]
Settings | vapor or sublimation pressure [kPa]
238.13 K | 12 ± 2
243.1 K | 16 ± 2
248 K | 21 ± 2
252.9 K | 27 ± 2
257.81 K | 34 ± 2
263.02 K | 44 ± 2
267.91 K | 55 ± 2
272.83 K | 68 ± 2
277.94 K | 85 ± 2
282.78 K | 102 ± 2
283.15 K | 103 ± 2
285.15 K | 111 ± 2
287.15 K | 120 ± 2
287.62 K | 123 ± 2
289.15 K | 129 ± 2
291.15 K | 139 ± 2
292.62 K | 148 ± 2
293.15 K | 149 ± 2
295.15 K | 160 ± 2
297.15 K | 172 ± 2
298 K | 178 ± 2
299.15 K | 184 ± 2
301.15 K | 198 ± 2
303.15 K | 211 ± 2
303.18 K | 212 ± 2
305.15 K | 225 ± 2
307.15 K | 241 ± 2
308.18 K | 249 ± 2
309.15 K | 256 ± 2
311.15 K | 273 ± 2
313.15 K | 291 ± 2
313.17 K | 291 ± 2
315.15 K | 309 ± 2
317.15 K | 329 ± 2
318.14 K | 338 ± 2
319.15 K | 349 ± 2
321.14 K | 370 ± 2
323.14 K | 392 ± 2
323.15 K | 392 ± 2
325.15 K | 415 ± 2
327.15 K | 439 ± 2
328.12 K | 451 ± 2
329.15 K | 465 ± 2
331.15 K | 491 ± 2
333.11 K | 518 ± 2
333.15 K | 519 ± 2
335.15 K | 548 ± 2
337.15 K | 578 ± 2
338.12 K | 591 ± 2
339.15 K | 609 ± 3
341.15 K | 641 ± 3
343.07 K | 672 ± 3
343.15 K | 675 ± 3
345.15 K | 710 ± 3
347.16 K | 746 ± 3
348.16 K | 764 ± 3
349.15 K | 784 ± 3
351.15 K | 823 ± 3
353.12 K | 861 ± 3
353.16 K | 863 ± 3
358.13 K | 969 ± 3
363.14 K | 1086 ± 3
368.09 K | 1212 ± 3
372.61 K | 1336 ± 4

From the NIST ThermoML archive (doi:10.1007/s10765-013-1553-5)
